Data set [1] can be described thus: Dissociation constant, pKa of the compound. Format: physicochemical.
The nature of data set [2]: Partition co-efficient, log P by pH metric titration. Format: physicochemical. Conditions: octanol/water.
A short description of data set [3]: Inhibition of POP in pig brain. Set-up: species or system Sus scrofa.
Data set [4] can be described thus: Solubility in phosphate buffer at pH 7.4. It is filed as physicochemical.
Data set [5] is described as follows: Partition co-efficient, log P by shake-flask method. The conditions noted are these: octanol/water. It is filed as physicochemical.

Values after ≈ are worked out from the molar mass of the structure shown.

From ChEMBL document CHEMBL1138876, “An introduction of a pyridine group into the structure of prolyl oligopeptidase inhibitors” (Bioorg Med Chem Lett, 2006) come the findings set out here.

Broadly, the pKa is the pH at which an ionisable group is half protonated. A lower pKa goes with a group that gives up its proton readily. In general, logP refers to a log measure of how a compound divides between an organic and an aqueous phase. Broadly, the IC50 is the midpoint of a concentration-inhibition curve. Read a low IC50 as greater potency in that assay. Usually solubility stands for the concentration that dissolves in the medium under given conditions. Low readings indicate a poorly soluble substance, high ones a readily soluble substance.

The compound `O=C(NCCc1cccnc1)C1=CCCC1C(=O)N1CCCC1` (stereo not drawn) gave a pKa in data set [1] of 4.4. The same compound displayed a lipophilicity (logP) in data set [2] of 0.6. For the same compound, the IC50 in data set [3] was 2.2 nM.
In data set [1], `O=C(NCc1ccncc1)C1=CCCC1C(=O)N1CCCC1` (stereo not drawn) yielded a pKa of 4.4. In data set [2], this compound had a logP of 0.4. The compound further displayed an IC50 in data set [3] of 19 nM.
Taken in the same sequence, the figures for `O=C(NCCc1ccncc1)C1=CCCC1C(=O)N1CCCC1` (stereo not drawn) were 4.4, 0.5 and 4.8 nM.
Take `O=C([C@@H]1CCCN1C(=O)c1cccnc1)N1CCCC1`: the log partition coefficient (logP) in data set [2] was -0.3. Moreover, the IC50 in data set [3] was 44 nM.
In the same order, the values of `O=C([C@@H]1CCCN1C(=O)CCc1cccnc1)N1CCCC1` are 0.3 and 30 nM.
In data set [2], `CC(C)(C)[C@H]1CC[C@@H](C(=O)N2CCCC2)N1C(=O)CCCc1cccnc1` came in with a lipophilicity (logP) of 2. Besides, the solubility in data set [4] is above 6000 µg/mL. The same compound showed a half-inhibitory concentration (IC50) in data set [3] of 2.1 nM.
In data set [4], `O=C(NCc1ccccc1)C1=CCCC1C(=O)N1CCCC1` (stereo not drawn) registered a solubility of 3000 µg/mL (≈ 10.1 mM). Further, the logP in data set [5] was determined as 1.6. Further, the midpoint of inhibition in data set [3], the IC50, lay at 9 nM.
Compound `O=C(NCCc1ccccc1)C1=CCCC1C(=O)N1CCCC1` (stereo not drawn) gave a logP in data set [5] of 1.9. The compound also returned an IC50 in data set [3] of 1.5 nM.
As to `CC(C)(C)[C@H]1CC[C@@H](C(=O)N2CCCC2)N1C(=O)CCCc1ccccc1`, the solubility in data set [4] is 900 µg/mL (≈ 2.43 mM). The compound also came in with a log partition coefficient (logP) in data set [5] of 3.3.
For the compound `O=C([C@@H]1CCCN1C(=O)CCCc1ccccc1)N1CCCC1`, the solubility in data set [4] was above 6000 µg/mL.
Regarding `O=C(NCc1cccnc1)C1=CCCC1C(=O)N1CCCC1` (stereo not drawn), the pKa in data set [1] was determined as 4.4. The logP in data set [2] came out at 0.4. The solubility in data set [4] was above 6000 µg/mL. In data set [3], this compound displayed a half-inhibitory concentration (IC50) of 9.7 nM.
In the case of `CC(C)(C)[C@H]1CC[C@@H](C(=O)N2CCCC2)N1C(=O)CCc1cccnc1`, in data set [2], the logP stood at 1.8. Moreover, half-maximal inhibition in data set [3] (IC50) was put at 13 nM.
In the same order, the values of `O=C([C@@H]1CCCN1C(=O)Cc1cccnc1)N1CCCC1` are -0.2 and 56 nM.
`O=C(NCCc1ccccn1)C1=CCCC1C(=O)N1CCCC1` (stereo not drawn) gave a pKa in data set [1] of 4.4. This compound showed a logP in data set [2] of 0.6. In data set [3], the IC50 was 5.2 nM.
In the same order, the values of `O=C(NCc1ccccn1)C1=CCCC1C(=O)N1CCCC1` (stereo not drawn) are 4.4, 0.3 and 24 nM.
